Assays:
Assay type in all cases: in vivo
[1] = tested on: pigweed (Amaranthus retroflexus); test: Test A pre-/postemergence: pigweed; details: for Pigweed plant response rating: Postemergence; for Plant response rating, Pigweed: Preemergence
Procedure, shortened: (§1)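 Injury was scored visually on a 0 (no effect) to 100 (complete control) scale versus untreated controls roughly ten days after treatment in the greenhouse. Compounds, formulated in surfactant-containing non-phytotoxic solvent, went on as soil-directed preemergence spray or postemergence to one- to two-leaf plants 2–10 cm tall.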

[2] = tested on: rice (Oryza sativa); test: Test B flooded paddy: rice; details: Flood; 250 g ai/ha; applied to paddy water at 2-leaf stage; visually evaluated after 13 to 15 days
Procedure, shortened: (§2)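 Response scored visually, 0–100 relative to controls, 13–15 days after the compound was applied into paddy water; plants were at the 2-leaf stage in pots kept flooded to 3 cm.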

[3] = tested on: barnyardgrass (Echinochloa crus-galli); test: Test B flooded paddy: barnyardgrass; details: Flood; 250 g ai/ha; applied to paddy water at 2-leaf stage; visually evaluated after 13 to 15 days
Procedure, shortened: as §2

[4] = tested on: barnyardgrass (Echinochloa crus-galli); test: Test A pre-/postemergence: barnyardgrass; details: for Barnyardgrass plant response rating: Postemergence; for Plant response rating, Barnyardgrass: Preemergence
Procedure, shortened: as §1

[5] = tested on: sedge, umbrella (small-flower umbrella sedge Cyperus difformis); test: Test B flooded paddy: sedge, umbrella; details: Flood; 250 g ai/ha; applied to paddy water at 2-leaf stage; visually evaluated after 13 to 15 days
Procedure, shortened: as §2

[6] = tested on: wheat (Triticum aestivum); test: Test A pre-/postemergence: wheat; details: for Wheat plant response rating: Postemergence; for Plant response rating, Wheat: Preemergence
Procedure, shortened: as §1

[7] = tested on: pigweed (Amaranthus retroflexus); test: Test C pre-/postemergence: pigweed; details: Postemergence
Procedure, shortened: (§3)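 Preemergence on seeds in loam/sand, postemergence on 2–18 cm (1–4-leaf) plants in peat-based medium; compounds in non-phytotoxic solvent with surfactant. After 13–15 days in greenhouse, visual rating versus controls, 0 (no effect) to 100 (complete control).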

[8] = tested on: lambsquarters (Chenopodium album); test: Test C pre-/postemergence: lambsquarters; details: Postemergence
Procedure, shortened: as §3

[9] = tested on: soybean (Glycine max); test: Test C pre-/postemergence: soybean; details: Postemergence
Procedure, shortened: as §3

[10] = tested on: ryegrass, Italian (Italian ryegrass, Lolium multiflorum); test: Test C pre-/postemergence: ryegrass, Italian; details: Postemergence
Procedure, shortened: as §3

[11] = tested on: winter wheat (Triticum aestivum); test: Test C pre-/postemergence: winter wheat; details: Postemergence
Procedure, shortened: as §3

[12] = 125 g ai/ha, 0 to 100 scale, 0 is no effect, 100 is complete control
[13] = 500 g ai/ha, visual rating on 0 to 100 scale (0 no effect, 100 complete control), approximately ten days
[14] = 125 g ai/ha, 0 to 100 scale (0 no effect, 100 complete control)
[15] = 500 g ai/ha, 0 to 100 scale, 0 is no effect, 100 is complete control
[16] = 31 g ai/ha, scale 0 to 100 (0 no effect, 100 complete control)
[17] = 62 g ai/ha, scale 0 to 100 (0 no effect, 100 complete control)
[18] = 125 g ai/ha, scale 0 to 100, 0 no effect, 100 complete control

Compound: FC(F)(F)c1ccc(-n2nc(Cl)c(Cc3ccnc(C(F)(F)F)c3)n2)cc1 [Compound 28]
- Pigweed plant response rating [1, 12]: 100
- Pigweed plant response rating [1, 13]: 100
- Plant response rating, Pigweed [1, 14]: 100
- Plant response rating, Pigweed [1, 15]: 100
- Plant response rating, Rice (0 to 100 scale, 0 is no effect, 100 is complete control) [2]: 80
- Plant response rating, Barnyardgrass (0 to 100 scale, 0 is no effect, 100 is complete control) [3]: 90
- Barnyardgrass plant response rating [4, 12]: 70
- Barnyardgrass plant response rating [4, 13]: 90
- Plant response rating, Barnyardgrass [4, 14]: 50
- Plant response rating, Barnyardgrass [4, 15]: 90
- Plant response rating, Sedge, Umbrella (0 to 100 scale, 0 is no effect, 100 is complete control) [5]: 95
- Wheat plant response rating [6, 12]: 40
- Wheat plant response rating [6, 13]: 50
- Plant response rating, Wheat [6, 14]: 0
- Plant response rating, Wheat [6, 15]: 20
- Plant response rating, Pigweed [7, 16]: 55
- Plant response rating, Pigweed [7, 17]: 55
- Plant response rating, Pigweed [7, 18]: 55
- Plant response rating, Pigweed ([7]; 250 g ai/ha, scale 0 to 100): 98
- Plant response rating, Lambsquarters [8, 16]: 35
- Plant response rating, Lambsquarters [8, 17]: 35
- Plant response rating, Lambsquarters [8, 18]: 95
- Plant response rating, Lambsquarters ([8]; 250 g ai/ha, scale 0 to 100): 95
- Plant response rating, Soybean [9, 16]: 30
- Plant response rating, Soybean [9, 17]: 35
- Plant response rating, Soybean [9, 18]: 35
- Plant response rating, Soybean ([9]; 250 g ai/ha, scale 0 to 100): 60
- Plant response rating, Ryegrass, Italian [10, 16]: 10
- Plant response rating, Ryegrass, Italian [10, 17]: 25
- Plant response rating, Ryegrass, Italian [10, 18]: 25
- Plant response rating, Ryegrass, Italian ([10]; 250 g ai/ha, scale 0 to 100): 30
- Plant response rating, Wheat [11, 16]: 5
- Plant response rating, Wheat [11, 17]: 10
- Plant response rating, Wheat [11, 18]: 10
- Plant response rating, Wheat ([11]; 250 g ai/ha, scale 0 to 100): 20
